Results: patent US20170174649A1, “ESTERS OF ACETALS, COMPOSITION THEREOF, METHODS OF PREPARATION AND MAIN USES THEREOF IN COSMETIC AREA” (GLYCEROSOLUTION QUIMICA LTDA, priority 2015, published 2017)

What was measured:
[1] = Solubility of sunscreens using cocoil glyceryl acetal as solubilizing agent; format: physicochemical; details: solvent cocoil glyceryl acetal
[2] = Tests of ocular irritation (OECD and GHS); format: in vivo; details: rules of OECD and GHS
Source text: In the tests of ocular irritation, the product has been classified as non-irritating according to the rules of OECD and GHS.

[3] = Tests of oral toxicity (GHS classification); format: in vivo; details: rules of GHS
[4] = Tests of skin irritation (OECD and GHS); format: in vivo
Source text: Two new batches of cocoil glyceryl acetal were sent to confirm the tests of dermal irritation.

| Compound | Solubility at 25° C. [1] | Ocular irritation classification [2] | Oral toxicity classification [3] | Skin irritation finding ([4]; one of the tests) | Skin irritation classification ([4]; two tests, rules of OECD and GHS) |
| --- | --- | --- | --- | --- | --- |
| CCCCC(CC)COC(=O)c1ccc(Nc2nc(Nc3ccc(C(=O)OCC(CC)CCCC)cc3)nc(Nc3ccc(C(=O)OCC(CC)CCCC)cc3)n2)cc1 (stereo not shown) [Ethylhexyl Triazone] | 16.0 grams/100 grams of cocoil glyceryl acetal |  |  |  |  |
| COc1ccc(C(=O)CC(=O)c2ccc(C(C)(C)C)cc2)cc1 [4-(1,1-dimethylethyl)-4-methoxydibenzoylmethane] | 14.0 grams/100 grams of cocoil glyceryl acetal |  |  |  |  |
| cocoil glyceryl acetal |  | non-irritating | class 5 (non-toxic) | mild dermal irritation | non-irritating |
| CCCCCCOC(=O)c1ccccc1C(=O)c1ccc(N(CC)CC)cc1O [Diethylamino hydroxybenzoi hexyl benzoate] | 18.0 grams/100 grams of cocoil glyceryl acetal |  |  |  |  |
